Laboratory results reported in PMC6664820, “Novel natural and synthetic inhibitors of solute carriers SGLT1 and SGLT2” (Pharmacology Research & Perspectives, 2019).
Values joined by “and” are separate entries in the source; they are usually repeats but may differ in a detail not shown here. Identical values can stand only once. Counter-ions that a name gives are not always drawn. Like-named read-outs stand apart in the source and are kept apart here.

Assays:
CHO‐hSGLT1/2 cells = assay: Cytotoxicity assay (ToxiLight, adenylate kinase leakage into CHO‐SGLT1/2 inhibition assay media); design: CYTOTOXICITY / CY[…], mean / CYTOTOXICITY (% of vehicle control) Mean / CYTOTOXICITY, mean / CY[…] (% of vehicle control) Mean: dose or concentration left out as unconfirmed; settings: mean; for CY[…] 50 mM: at 50 mM (so in the source);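 on all read-outs here: bioluminescent read-out of adenylate kinase released from lysed cells into the medium, given relative to DMSO vehicle control defined as 0%, higher meaning more cytolysis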
Protocol: The cytotoxicity of representative SGLT1/2 inhibitors and compounds from the different chemical clusters was tested. Cytotoxicity was determined using the ToxiLight bioassay kit according to the supplier's instructions. This nondestructive assay measures leakage of the enzyme adenylate kinase (AK) from damaged cells into the CHO‐SGLT1/2 inhibition assay media, ie the degree of cytolysis. […] Next, bioluminescence was measured using a FlexStation 3 Multi‐Mode Microplate Reader (Molecular Devices) by 1 second integrated reading. Cytotoxicity was expressed as the percentage of bioluminescence of the DMSO vehicle control which was set at 0%. If applicable, statistical outliers were determined using Grubbs’ test (alpha = 0.05) and excluded for calculation of the mean ± SD.

hSGLT2 = target: T1, hSGLT2 (Homo sapiens, UniProt P31639); assay: SGLT2 inhibition assay for validation of screening hits and similar compounds (1‐NBD‐glucose uptake, CHO‐hSGLT2 cells); type: cell-based; design: activity: dose or concentration left out as unconfirmed; settings: for remaining activity at 5 µM / remaining activity at 50 µM: 0.5 h, read-out: NORMALIZED SGLT2 ACTIVITY (%); for activity: compound, normalized 1-NBD-glucose uptake, CHO-hSGLT2 cells; for SGLT2/SGLT1 ACTIVITY RATIO 5 uM Mean: ratio of normalized SGLT2 to SGLT1 activity at 5 uM
T1 sequence (P31639 1-672): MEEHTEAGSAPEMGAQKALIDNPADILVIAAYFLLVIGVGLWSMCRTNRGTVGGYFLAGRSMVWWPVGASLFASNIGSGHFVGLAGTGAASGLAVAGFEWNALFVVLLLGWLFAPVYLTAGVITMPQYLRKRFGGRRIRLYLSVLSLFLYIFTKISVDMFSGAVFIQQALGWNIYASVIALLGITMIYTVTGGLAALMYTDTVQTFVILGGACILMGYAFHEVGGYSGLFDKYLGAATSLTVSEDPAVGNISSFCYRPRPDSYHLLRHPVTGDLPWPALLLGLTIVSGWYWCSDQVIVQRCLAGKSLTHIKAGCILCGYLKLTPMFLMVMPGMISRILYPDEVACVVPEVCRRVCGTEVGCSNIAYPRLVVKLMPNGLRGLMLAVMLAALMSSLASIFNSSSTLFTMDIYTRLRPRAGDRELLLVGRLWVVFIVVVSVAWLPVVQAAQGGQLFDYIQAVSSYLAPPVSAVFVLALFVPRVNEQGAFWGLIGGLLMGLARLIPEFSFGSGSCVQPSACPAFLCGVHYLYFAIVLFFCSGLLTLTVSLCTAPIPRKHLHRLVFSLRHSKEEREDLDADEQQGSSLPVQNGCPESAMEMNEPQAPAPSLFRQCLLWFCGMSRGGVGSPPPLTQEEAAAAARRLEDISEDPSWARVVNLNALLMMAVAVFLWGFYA

SGLT1 = target: T2, SGLT1 (Homo sapiens, UniProt P13866); assay: SGLT1 inhibition assay for validation of screening hits and similar compounds (1‐NBD‐glucose uptake, CHO‐hSGLT1 cells); type: cell-based; design: activity: dose or concentration left out as unconfirmed; settings: for remaining activity at 5 µM / remaining activity at 50 µM: 0.5 h, read-out: NORMALIZED SGLT1 ACTIVITY (%); for activity: compound, normalized 1-NBD-glucose uptake, CHO-hSGLT1 cells
T2 sequence (P13866 1-664): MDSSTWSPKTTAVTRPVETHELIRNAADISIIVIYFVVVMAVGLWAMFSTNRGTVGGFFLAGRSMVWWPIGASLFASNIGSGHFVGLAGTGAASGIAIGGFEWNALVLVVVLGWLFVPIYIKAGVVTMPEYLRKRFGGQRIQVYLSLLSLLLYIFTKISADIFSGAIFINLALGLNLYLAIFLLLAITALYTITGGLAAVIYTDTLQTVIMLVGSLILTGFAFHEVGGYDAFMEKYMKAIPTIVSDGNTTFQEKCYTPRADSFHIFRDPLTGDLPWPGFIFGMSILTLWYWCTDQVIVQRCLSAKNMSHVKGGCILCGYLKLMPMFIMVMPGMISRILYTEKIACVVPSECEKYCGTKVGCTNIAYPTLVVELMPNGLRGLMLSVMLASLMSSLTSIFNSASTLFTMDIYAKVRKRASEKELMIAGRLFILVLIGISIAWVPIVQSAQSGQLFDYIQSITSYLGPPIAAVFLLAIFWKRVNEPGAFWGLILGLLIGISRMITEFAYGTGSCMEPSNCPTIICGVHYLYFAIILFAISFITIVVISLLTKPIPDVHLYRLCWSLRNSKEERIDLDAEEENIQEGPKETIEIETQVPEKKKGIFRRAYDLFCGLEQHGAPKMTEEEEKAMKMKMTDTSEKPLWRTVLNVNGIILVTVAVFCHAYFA

Row | SMILES | remaining activity at 5 µM (hSGLT2; mean, concentration not given) [%] | remaining activity at 50 µM (hSGLT2; mean, concentration not given) [%] | remaining activity at 5 µM (SGLT1; mean, concentration not given) [%] | remaining activity at 50 µM (SGLT1; mean, concentration not given) [%] | CYTOTOXICITY (% of vehicle control) Mean (CHO‐hSGLT1/2 cells) | activity (hSGLT2; mean) [%] | SGLT2/SGLT1 ACTIVITY RATIO 5 uM Mean (hSGLT2) | activity (SGLT1; mean) [%] | also measured
1 | Oc1c(Br)cc(Cl)c2cccnc12 [7-Bromo-5-chloro-8-hydroxyquinoline] | 92 | 78 | 103 | 45 |  |  |  |  | CYTOTOXICITY (CHO‐hSGLT1/2 cells): 14
2 | C/C=C(\C)C(=O)O[C@H]1[C@@H](OC(C)=O)c2c(ccc3ccc(=O)oc23)OC1(C)C [(+)-Praeruptorin A] |  |  |  |  | -5.48 % of vehicle control | 95 | 1.0 | 94 | 
3 | CC=C(C)C(=O)O[C@H]1c2c(ccc3ccc(=O)oc23)OC(C)(C)[C@H]1OC(C)=O [(+)-Pteryxin] |  |  |  |  | 2 % of vehicle control | 81 | 1.1 | 75 | 
4 | Oc1ccc(/C=C/c2cc(O)cc3c2[C@H](c2cc(O)cc(O)c2)[C@@H](c2ccc(O)cc2)O3)cc1 [(+)-e-Viniferin] | 102 | 79 | 97 | 56 |  |  |  |  | CYTOTOXICITY (CHO‐hSGLT1/2 cells): 6
5 | CN1[C@@H](CC(=O)c2ccccc2)CCC[C@H]1C[C@H](O)c1ccccc1 [(-)-Lobeline HCl] | 97 | 63 | 98 | 57 |  |  |  |  | CY[…] 50 mM (CHO‐hSGLT1/2 cells): -18
6 | Oc1ccc(/C=C/c2cc(O)cc3c2[C@@H](c2cc(O)cc(O)c2)[C@H](c2ccc(O)cc2)O3)cc1 [(-)-e-Viniferin] | 107 | 65 | 106 | 117 |  |  |  |  | CYTOTOXICITY (CHO‐hSGLT1/2 cells): -9
7 | CCN(CC)CCOC(=O)C(c1ccccc1)c1ccccc1 [Adiphenine HCl] |  |  |  |  |  | 113 | 1.0 | 108 | CY[…] (% of vehicle control) Mean (CHO‐hSGLT1/2 cells): -16 % of vehicle control
8 | O=C1c2cc(CO)cc(O)c2C(=O)c2c(O[C@@H]3O[C@H](CO)[C@@H](O)[C@H](O)[C@H]3O)cccc21 [Aloe-emodin-8-O-b-D-glucopyranoside] |  |  |  |  | -3.25 % of vehicle control | 100 | 1.0 | 100 | 
9 | OC(CCN1CCCCC1)(c1ccccc1)C1CC2C=CC1C2 (stereo not shown) [Biperiden HCl] |  |  |  |  |  | 75 | 0.949 | 79 | CY[…] (% of vehicle control) Mean (CHO‐hSGLT1/2 cells): -7 % of vehicle control
10 | CCCCN1CCCCC1C(=O)Nc1c(C)cccc1C (stereo not shown) [Bupivacaine HCl monohydrate] | 72 | 50 | 68 | 36 |  |  |  |  | CY[…] 50 mM (CHO‐hSGLT1/2 cells): -2.27
11 | CCN(CC)CCOC(=O)C1(c2ccccc2)CCCC1 [Caramiphen HCl] |  |  |  |  | -5.41 % of vehicle control | 88 | 0.9 | 101 | 
12 | COc1ccc(-c2coc3cc(O[C@@H]4O[C@H](CO)[C@@H](O)[C@H](O)[C@H]4O)c(OC)cc3c2=O)cc1OC [Cladrastin-7-O-b-D-glucopyranoside] |  |  |  |  | -23 % of vehicle control | 103 | 1.0 | 104 | 
13 | CCOC(=O)c1ccc(OC2OC(CO)C(O)C(O)C2O)cc1 (stereo not shown) [Clivicolide] |  |  |  |  | 12 % of vehicle control | 111 | 1.1 | 99 | 
14 | Clc1ccc(C(OCCN2CCCCC2)c2ccccc2)cc1 (stereo not shown) [Cloperastine HCl] |  |  |  |  | -5 % of vehicle control | 65 | 1.1 | 61 | 
15 | COC(=O)C(c1ccccc1Cl)N1CCc2sccc2C1 (stereo not shown) [Clopidogrelum, clopidogrel] |  |  |  |  |  |  |  |  | CY[…] 50 mM (CHO‐hSGLT1/2 cells): -9; SGLT2/SGLT1 ACTIVITY RATIO (hSGLT2): 1.1 and 1.0; remaining activity at 5 µM (hSGLT2): 95%; remaining activity at 50 µM (hSGLT2): 60%; remaining activity at 5 µM (SGLT1): 96%; remaining activity at 50 µM (SGLT1): 54%
16 | O=c1c(-c2ccc(O)cc2)coc2cc(O[C@@H]3O[C@H](CO)[C@@H](O)[C@H](O)[C@H]3O)ccc12 [Daidzin] |  |  |  |  | -19 % of vehicle control | 102 | 1.0 | 97 | 
17 | O=c1c2ccccc2[nH]c(=S)n1CCN1CCC(=C(c2ccc(F)cc2)c2ccc(F)cc2)CC1 [Diacylglycerol Kinase Inhibitor II] | 106 | 85 | 105 | 89 |  |  |  |  | CYTOTOXICITY (CHO‐hSGLT1/2 cells): -13
18 | CN1CCC(OC(c2ccccc2)c2ccccc2)CC1 [Diphenylpyraline HCl] |  |  |  |  |  | 104 | 1.0 | 108 | CY[…] (% of vehicle control) Mean (CHO‐hSGLT1/2 cells): -6 % of vehicle control
19 | C[C@@H]1O[C@@H](O[C@H]2[C@H](O[C@H]3CC[C@@]4(C)[C@@H](CC[C@]5(C)[C@@H]4CC=C4[C@@H]6CC(C)(C)CC[C@]6(C(=O)O[C@@H]6O[C@H](CO[C@@H]7O[C@H](CO)[C@@H](O)[C@H](O)[C@H]7O)[C@@H](O)[C@H](O)[C@H]6O)CC[C@]45C)[C@]3(C)CO)OC[C@H](O)[C@@H]2O)[C@H](O)[C@H](O)[C@H]1O [Dipsacoside B] |  |  |  |  |  |  |  |  | CY[…] 50 mM (CHO‐hSGLT1/2 cells): -12; SGLT2/SGLT1 ACTIVITY RATIO (hSGLT2): 1.2 and 1.3; remaining activity at 5 µM (hSGLT2): 121%; remaining activity at 50 µM (hSGLT2): 121%; remaining activity at 5 µM (SGLT1): 96%; remaining activity at 50 µM (SGLT1): 104%
20 | COC(=O)[C@@]1(C)CC[C@]2(C(=O)O[C@@H]3O[C@H](CO)[C@@H](O)[C@H](O)[C@H]3O)CC[C@]3(C)C(=CC[C@@H]4[C@@]5(C)C[C@H](O)[C@H](O[C@@H]6OC[C@@H](O[C@@H]7O[C@H](CO)[C@@H](O)[C@H](O)[C@H]7O)[C@H](O)[C@H]6O)[C@@](C)(CO)[C@@H]5CC[C@]43C)[C@@H]2C1 [Esculentoside H] | 120 | 112 | 104 | 102 |  |  |  |  | CYTOTOXICITY (CHO‐hSGLT1/2 cells): -13
